Consider twelve compounds from paper PMC6222871, “Suppression of Hepatitis C Virus Genome Replication and Particle Production by a Novel Diacylglycerol Acyltransferases Inhibitor” (Molecules : A Journal of Synthetic Chemistry and Natural …, 2018).

Like-named read-outs stand apart in the source and are kept apart here. Where only a bound is given, the exact number is not on record here.

Data set [1] relates to recombinant DGAT-1. Also noted: method as in PMID 23242135. The settings on record: recombinant DGAT-1, [14C] oleoyl-CoA as acyl-donor; cited from earlier work.
A short description of data set [2]: MTT-based cell viability assay (EZ-CYTOX). The settings on record: human. Here is the method: (§1) To order to study impacts of DGAT inhibitors on HCV genome replication independently of the particle production, we decided to examine effects of these twelve DGAT inhibitors on the levels of viral RNA genome and cell viability in parallel. […] Then, we treated them with an increasing concentration of each DGAT inhibitor. Then, luciferase and MTT-based cell viability assays were performed to determine EC50 and CC50 (cytotoxic concentration required to kill 50% of treated cells) values, respectively.
(§2) Cell viability was measured with EZ-CYTOX (10% tetrazolium salt; Dogen, Gyeonggi-do, Korea) as described previously. Anti-HCV replication analysis using a luciferase assay was conducted as previously described.

Data set [3] concerns recombinant DGAT-2. Further details: method as in PMID 23242135. The settings on record: cited from earlier work.
In data set [4] the test system is luciferase-linked genotype 2a HCV RNAs. Briefly: microbe, parasite or virus in culture. It is filed as cell-based, hepatitis C virus. The settings on record: read-out: EC50 (HCV replication). Here is the method:
as §1, §2

Data set [5] relates to HCV genotype 2a (Huh7.5-J6/JFH1). Briefly: HCV particle production: infectivity of supernatant on naive Huh7.5 cells by real-time RT-PCR. It is filed as cell-based, hepatitis C virus. The settings on record: 10 μM. (In qPCR the cycle at which signal appears reflects the starting amount.)
Procedure: A922500, a commercially available DGAT-1-specific inhibitor was used as a positive control [10]. […] Therefore, we decided to examine effects of these twelve DGAT inhibitors on HCV particle production as well as RNA genome replication in parallel. For this purpose, we transfected Huh7.5 cells with in vitro-transcribed genotype 2a HCV RNAs (Huh7.5-J6/JFH1) [16] and treated them with each DGAT inhibitor for 6 and 72 h at 10 μM. HCV genome replication as well as host GAPDH RNA levels was quantitated by a real-time RT-PCR analysis. For assessment of HCV particle production, we harvested and filtered the supernatant from Huh7.5-J6/JFH1 cells treated with DGAT inhibitors and incubated the supernatant with naïve huh7.5 cells for 72 h. Then, infectivity was measured by a real-time RT-PCR analysis.
Huh7.5-J6/JFH-1 cells were seeded into 6-well plates at a density of 3 × 10^5 cells per well with DMEM containing 10% FBS. […] Total RNAs were extracted from treated cells and virus-containing media were harvested at each time point. Naïve Huh7.5 cells were infected with these virus-containing media after concentration with centricons.
For data set [6], the system named is HepG2 cells. Also noted: method as in PMID 23242135. The settings on record: [14C] glycerol as substrate; cited from earlier work.
Data set [7] concerns DGATs (rat liver microsome). Further details: method as in PMID 23141914, PMID 23242135. The settings on record: cited from earlier work.
Data set [8] relates to HCV NS3 (Huh7.5-J6/JFH1, genotype 2a). Briefly: western blot of HCV NS3 protein in Huh7.5-J6/JFH1 cells. The settings on record: positive control. As for the experimental part: Due to the tight coupling of viral genome replication to its protein expression, inhibition of viral RNA genome replication leads to a subsequent reduction of viral protein expression.
(A) Dose-dependent western blot analysis of Huh7.5-J6/JFH1 cells treated with increasing concentrations of 10j for 72 h by measuring protein expression levels of HCV NS3 relative to the β-actin. Daclatasvir, an NS5A inhibitor was used as a positive control. (B) Time-dependent western blot analysis of J6/JFH1 RNA-transfected Huh7.5 cells treated with 8 μM of 10j for increasing periods of time analyzed by measuring protein expression levels of HCV NS3 relative to the β-actin. (C,D) Same experiments were performed as in (A,B) to study effects of 10j on the expression levels of the NS5A protein of Huh7.5-Bart79I cells in a dose- as well as time-dependent manners.
Western blot analysis of Huh7.5-J6/JFH1 or Bart79I cells treated with 10j was conducted as previously described. Relative amounts of HNF4α proteins were quantified by using an HNF4α mouse monoclonal antibody (M04), clone 4E2 (Abnova) with the dilution of 1:1000.

[9] abbreviates: Hepatitis C virus, Huh7.5, luciferase-linked genotype 2a HCV RNA in Huh7.5 cells.

Turning to `CC(C)CCn1cc(/C=C/C(=O)N(NC(=O)c2ccc(F)cc2)C(C)C)c2ccccc21` [8i], the IC50 (usually the point on the concentration scale where inhibition reaches its midpoint) in data set [1] was 2.1 µM; in data set [3], above 10 µM. The CC50 (commonly the concentration that lowers cell viability or growth by half) in data set [2] is above 10 µM. The EC50 (in general, the concentration giving half of the maximal effect) in data set [4] (setting [9]) amounted to 5.1 µM. In addition, the “effect on HCV particle production” value in data set [5] (72 h (Figure 1D)) is recorded as “suppress the viral particle production”. Further, the “TG % (10 μM in HepG2), relative [14C] triglyceride percentage” value in data set [6] is listed as 94.8%.
As to `CC(C)(C)OC(=O)n1cc(/C=C/C(=O)Nc2cccc(C(=O)NCc3ccco3)c2)c2ccccc21` [5h], the IC50 was above 100 µM in data set [1], 6.9 µM in data set [3] and 2.5 µM in data set [7]. This compound also gave a CC50 in data set [2] of 5.1 µM. Besides, the EC50 in data set [4] (setting [9]) was 2.1 µM. Also, the results for the “effect on HCV particle production” value in data set [5] (6 h (Figure 1B)) and in data set [5] (72 h (Figure 1D)) were “able to block HCV particle production” and “suppress the viral particle production”, respectively. For the same compound, the “TG % (10 μM in HepG2), relative [14C] triglyceride percentage” value in data set [6] is listed as 33.2%.
Regarding `CC(C)(C)OC(=O)n1cc(/C=C/C(=O)Nc2cccc(C(=O)N3CCCC3)c2)c2ccccc21` [5c], the IC50 was 89.1 µM in data set [1], 6.8 µM in data set [3] and 13.2 µM in data set [7]. Further, the CC50 in data set [2] was above 10 µM. In addition, the EC50 in data set [4] (setting [9]) is above 10 µM. The “effect on HCV particle production” value in data set [5] (72 h (Figure 1D)) is on record as “suppress the viral particle production”.
For `Cc1ccc(CNC(=O)c2cccc(NC(=O)/C=C/c3cn(C(=O)OC(C)(C)C)c4ccccc34)c2)o1` [5j], the values for the IC50 in data set [1], in data set [3] and in data set [7] were above 100 µM, 7.4 µM and 9.4 µM, respectively. This compound also returned a CC50 in data set [2] of 3.4 µM. In data set [4] (setting [9]), the EC50 is 1.1 µM. In addition, in data set [5] (72 h (Figure 1D)), the “effect on HCV particle production” value is reported as “suppress the viral particle production”.
Consider `CC(C)CCn1cc(/C=C/C(=O)N(NC(=O)c2cccc(F)c2)C(C)C)c2ccccc21` [8h], for which the IC50 in data set [1] is 20.4 µM; in data set [3], above 10 µM. For the same compound, the CC50 in data set [2] is above 10 µM. Moreover, in data set [4] (setting [9]), the EC50 was 6.7 µM. In addition, the “effect on HCV particle production” value in data set [5] (72 h (Figure 1D)) is given as “suppress the viral particle production”. In addition, the “TG % (10 μM in HepG2), relative [14C] triglyceride percentage” value in data set [6] is reported as 71.2%.
`O=C(c1ccc2nc(COc3ccc(C45CC6CC(CC(C6)C4)C5)cc3)[nH]c2c1)N1CCCCC1` [10e]: the CC50 in data set [2] was above 10 µM. The IC50 in data set [7] was 27.5 µM. Moreover, the 50% effective concentration (EC50) in data set [4] (setting [9]) is above 10 µM.
As to `COC(=O)N[C@H](C(=O)N1CCC[C@H]1c1nc(-c2ccc(-c3ccc(-c4c[nH]c([C@@H]5CCCN5C(=O)[C@@H](NC(=O)OC)C(C)C)n4)cc3)cc2)c[nH]1)C(C)C` [Daclatasvir, reference compound], in data set [8], the “expression of viral proteins” value is given as “able to inhibit expression of viral proteins”.
As to `O=C(NCc1ccccn1)c1ccc2nc(COc3ccc(C45CC6CC(CC(C6)C4)C5)cc3)[nH]c2c1` [10i], the midpoint of cytotoxicity in data set [2], the CC50, lay at 3.9 µM. Besides, the IC50 in data set [7] was 20 µM.
Regarding `CC(C)=CCn1cc(/C=C/C(=O)N(NC(=O)c2cccc(F)c2)C(C)C)c2ccccc21` [8u], the results for the IC50 in data set [1] and in data set [3] were 1.5 µM and above 10 µM, respectively. The compound further displayed a cytotoxic concentration (CC50) in data set [2] above 10 µM. For the same compound, the EC50 in data set [4] (setting [9]) was above 10 µM. In addition, in data set [5] (72 h (Figure 1D)), the “effect on HCV particle production” value is on record as “suppress the viral particle production”. Also, the “TG % (10 μM in HepG2), relative [14C] triglyceride percentage” value in data set [6] was 55.7%.
With `O=C(Nc1ccccc1)c1ccc2nc(COc3ccc(C45CC6CC(CC(C6)C4)C5)cc3)[nH]c2c1` [10f], the CC50 in data set [2] is above 10 µM. Further, the IC50 in data set [7] is above 50 µM. For the same compound, in data set [4] (setting [9]), the EC50 is above 10 µM.
`CC(C)NC(=O)c1cccc(NC(=O)/C=C/c2cn(C(=O)OC(C)(C)C)c3ccccc23)c1` [5a]: the IC50 in data set [1] is above 100 µM; in data set [3], 6.9 µM; in data set [7] it was 8.8 µM. This compound gave a CC50 in data set [2] of 3.7 µM. Further, the EC50 in data set [4] (setting [9]) worked out at 1.9 µM. The “effect on HCV particle production” value in data set [5] (6 h (Figure 1B)) is recorded as “able to block HCV particle production”; in data set [5] (72 h (Figure 1D)), “suppress the viral particle production”.
The compound `O=C(NCc1ccccc1)c1ccc2nc(COc3ccc(C45CC6CC(CC(C6)C4)C5)cc3)[nH]c2c1` [10h] gave a CC50 in data set [2] above 10 µM. In addition, the IC50 in data set [7] was above 50 µM. For the same compound, the EC50 in data set [4] (setting [9]) is below 10 µM; in data set [4] (luciferase-linked genotype 2a HCV RNA in Huh7.5 cells) it was 7.7 µM.
